Assays:
[1] = target: Alpha-1B adrenergic receptor (Homo sapiens) (UniProt P35368); details: Compound concentration 10.0 uM
[2] = target: Kappa-type opioid receptor (Rattus norvegicus) (UniProt P34975); assay: KAPPA/R Eurofins SafetyScreen44 (BI); details: Compound concentration 10.0 uM
[3] = target: D(3) dopamine receptor (Homo sapiens) (UniProt P35462); details: Compound concentration 10.0 uM
[4] = target: Sodium-dependent noradrenaline transporter (Homo sapiens) (UniProt P23975); details: Compound concentration 10.0 uM
[5] = target: Mitogen-activated protein kinase 9 (Homo sapiens) (UniProt P45984); assay: MAPK9 Invitrogen Lab (UK) kinase screen (BI); details: Compound concentration 1.0 uM
[6] = target: Platelet-derived growth factor receptor alpha (Homo sapiens) (UniProt P16234); assay: PDGFRA Invitrogen Lab (UK) kinase screen (BI); details: Compound concentration 1.0 uM
[7] = target: Fibroblast growth factor receptor 1 (Homo sapiens) (UniProt P11362); assay: FGFR1 Invitrogen Lab (UK) kinase screen (BI); details: Compound concentration 1.0 uM
[8] = target: Cyclin-dependent kinase 2/cyclin A (Homo sapiens) (UniProt P24941+P20248+P78396); assay: CDK2/CYCLINA Invitrogen Lab (UK) kinase screen (BI); assay type: protein-complex assay; details: Compound concentration 1.0 uM
[9] = target: Mitogen-activated protein kinase kinase kinase 8 (Homo sapiens) (UniProt P41279); assay: MAP3K8 Invitrogen Lab (UK) kinase screen (BI); details: Compound concentration 1.0 uM
[10] = target: AMP-activated protein kinase (AMPK) alpha-1/beta-1/gamma-1 (Homo sapiens) (UniProt P54619+Q9Y478+Q13131); assay: AMPK A1B1G1 Invitrogen Lab (UK) kinase screen (BI); assay type: protein-complex assay; details: Compound concentration 1.0 uM
[11] = test system: Voltage-gated K+ channel Kv1 (Rattus norvegicus); assay: K+/VOLT/RA Eurofins SafetyScreen44 (BI); details: rat brain, probe [125I]a-dendrotoxin, read-out: % Ctrl
[12] = target: 5-hydroxytryptamine receptor 1B (Rattus norvegicus) (UniProt P28564); assay: 5HT1B/R Eurofins SafetyScreen44 (BI); details: Compound concentration 10.0 uM
[13] = target: Aurora kinase B (Homo sapiens) (UniProt Q96GD4); assay: AURKB Invitrogen Lab (UK) kinase screen (BI); details: Compound concentration 1.0 uM
[14] = target: Histamine H2 receptor (Homo sapiens) (UniProt P25021); details: Compound concentration 10.0 uM
[15] = target: 5-hydroxytryptamine receptor 2B (Homo sapiens) (UniProt P41595); details: Compound concentration 10.0 uM
[16] = target: Vascular endothelial growth factor receptor 2 (Homo sapiens) (UniProt P35968); assay: KDR Invitrogen Lab (UK) kinase screen (BI); details: Compound concentration 1.0 uM
[17] = target: Mitogen-activated protein kinase 1 (Homo sapiens) (UniProt P28482); assay: MAPK1 Invitrogen Lab (UK) kinase screen (BI); details: Compound concentration 1.0 uM
[18] = target: Alpha-2C adrenergic receptor (Homo sapiens) (UniProt P18825); details: Compound concentration 10.0 uM
[19] = target: T1, 5-hydroxytryptamine receptor 3A (Homo sapiens) (UniProt P46098); details: Compound concentration 10.0 uM
T1 sequence (whole entry): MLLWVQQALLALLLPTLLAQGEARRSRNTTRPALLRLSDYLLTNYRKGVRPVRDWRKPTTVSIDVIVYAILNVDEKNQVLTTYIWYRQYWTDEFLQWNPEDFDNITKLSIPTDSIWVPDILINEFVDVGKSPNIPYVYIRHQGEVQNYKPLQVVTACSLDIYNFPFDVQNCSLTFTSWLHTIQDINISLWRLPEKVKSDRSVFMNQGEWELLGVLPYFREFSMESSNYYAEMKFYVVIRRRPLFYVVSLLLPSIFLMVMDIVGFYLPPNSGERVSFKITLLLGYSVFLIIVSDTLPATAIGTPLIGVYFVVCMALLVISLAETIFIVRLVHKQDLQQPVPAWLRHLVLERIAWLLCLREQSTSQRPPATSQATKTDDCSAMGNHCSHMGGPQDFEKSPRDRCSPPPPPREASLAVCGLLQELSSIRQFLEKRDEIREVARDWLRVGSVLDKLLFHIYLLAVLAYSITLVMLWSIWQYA

[20] = target: B-cell lymphoma 6 protein (Homo sapiens, UniProt P41182); assay: SPR (BCL6), Ontario institute for cancer research

Chain of Alpha-2C adrenergic receptor (Homo sapiens) (P18825 whole entry): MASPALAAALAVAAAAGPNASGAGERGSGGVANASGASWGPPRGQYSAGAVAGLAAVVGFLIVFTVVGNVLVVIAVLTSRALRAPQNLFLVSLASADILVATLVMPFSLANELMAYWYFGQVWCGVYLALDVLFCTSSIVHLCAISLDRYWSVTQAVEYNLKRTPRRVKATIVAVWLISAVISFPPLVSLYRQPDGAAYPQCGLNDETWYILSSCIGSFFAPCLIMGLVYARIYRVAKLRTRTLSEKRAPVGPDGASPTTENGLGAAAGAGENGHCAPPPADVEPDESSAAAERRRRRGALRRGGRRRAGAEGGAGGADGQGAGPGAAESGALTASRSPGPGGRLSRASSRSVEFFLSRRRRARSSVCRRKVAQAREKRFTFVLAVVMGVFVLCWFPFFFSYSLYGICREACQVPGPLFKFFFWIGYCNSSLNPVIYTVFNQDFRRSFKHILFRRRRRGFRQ
Chain of Alpha-1B adrenergic receptor (Homo sapiens) (P35368 whole entry): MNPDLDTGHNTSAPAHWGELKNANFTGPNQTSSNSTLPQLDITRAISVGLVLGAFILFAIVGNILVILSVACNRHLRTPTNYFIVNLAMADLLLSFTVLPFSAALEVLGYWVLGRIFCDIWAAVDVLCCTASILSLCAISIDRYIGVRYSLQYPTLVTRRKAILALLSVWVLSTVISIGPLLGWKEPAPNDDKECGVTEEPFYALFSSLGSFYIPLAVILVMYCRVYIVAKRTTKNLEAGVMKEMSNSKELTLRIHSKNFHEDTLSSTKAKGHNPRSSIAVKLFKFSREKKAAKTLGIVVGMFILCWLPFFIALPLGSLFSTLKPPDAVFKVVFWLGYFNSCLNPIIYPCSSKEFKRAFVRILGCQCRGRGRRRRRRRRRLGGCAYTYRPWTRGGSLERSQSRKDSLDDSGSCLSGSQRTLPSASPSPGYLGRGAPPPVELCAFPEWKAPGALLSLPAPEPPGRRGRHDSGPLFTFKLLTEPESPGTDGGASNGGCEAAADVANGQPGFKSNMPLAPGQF
Chain of Histamine H2 receptor (Homo sapiens) (P25021 whole entry): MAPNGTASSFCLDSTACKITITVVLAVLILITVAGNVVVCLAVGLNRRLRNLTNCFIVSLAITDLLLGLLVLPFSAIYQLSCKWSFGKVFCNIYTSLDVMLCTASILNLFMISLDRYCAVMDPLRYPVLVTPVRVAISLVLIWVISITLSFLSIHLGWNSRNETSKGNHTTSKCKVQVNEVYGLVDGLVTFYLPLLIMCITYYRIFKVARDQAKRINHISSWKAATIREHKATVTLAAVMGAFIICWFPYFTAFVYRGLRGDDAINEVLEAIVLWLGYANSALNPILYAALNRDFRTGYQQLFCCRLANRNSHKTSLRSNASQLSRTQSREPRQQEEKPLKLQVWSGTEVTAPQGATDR
Chain of D(3) dopamine receptor (Homo sapiens) (P35462 whole entry): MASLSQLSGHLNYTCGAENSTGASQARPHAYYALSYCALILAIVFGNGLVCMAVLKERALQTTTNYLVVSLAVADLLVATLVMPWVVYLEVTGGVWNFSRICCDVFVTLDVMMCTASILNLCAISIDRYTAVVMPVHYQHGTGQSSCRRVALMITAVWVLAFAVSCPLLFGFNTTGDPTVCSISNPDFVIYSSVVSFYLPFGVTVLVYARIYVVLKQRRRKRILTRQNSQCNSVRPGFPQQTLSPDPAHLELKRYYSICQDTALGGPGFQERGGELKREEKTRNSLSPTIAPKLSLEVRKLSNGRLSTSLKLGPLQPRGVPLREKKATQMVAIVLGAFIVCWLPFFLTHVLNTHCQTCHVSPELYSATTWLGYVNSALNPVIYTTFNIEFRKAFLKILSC
Chain of Sodium-dependent noradrenaline transporter (Homo sapiens) (P23975 whole entry): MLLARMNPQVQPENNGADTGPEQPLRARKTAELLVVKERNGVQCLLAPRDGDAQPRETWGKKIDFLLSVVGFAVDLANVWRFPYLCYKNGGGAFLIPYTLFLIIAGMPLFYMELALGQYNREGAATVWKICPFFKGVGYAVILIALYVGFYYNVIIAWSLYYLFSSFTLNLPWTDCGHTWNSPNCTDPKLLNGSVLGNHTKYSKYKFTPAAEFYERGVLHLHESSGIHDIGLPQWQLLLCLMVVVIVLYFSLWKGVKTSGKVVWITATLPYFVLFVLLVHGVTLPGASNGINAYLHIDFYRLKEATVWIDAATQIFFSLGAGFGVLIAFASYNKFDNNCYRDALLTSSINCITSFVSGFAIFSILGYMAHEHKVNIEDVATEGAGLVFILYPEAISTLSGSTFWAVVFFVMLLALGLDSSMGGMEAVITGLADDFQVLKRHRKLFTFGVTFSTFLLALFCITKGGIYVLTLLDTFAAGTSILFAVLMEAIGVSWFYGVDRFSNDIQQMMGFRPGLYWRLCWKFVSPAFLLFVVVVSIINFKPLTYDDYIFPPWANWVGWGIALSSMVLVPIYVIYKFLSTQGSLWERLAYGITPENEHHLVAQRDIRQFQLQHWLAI
Chain of 5-hydroxytryptamine receptor 2B (Homo sapiens) (P41595 whole entry): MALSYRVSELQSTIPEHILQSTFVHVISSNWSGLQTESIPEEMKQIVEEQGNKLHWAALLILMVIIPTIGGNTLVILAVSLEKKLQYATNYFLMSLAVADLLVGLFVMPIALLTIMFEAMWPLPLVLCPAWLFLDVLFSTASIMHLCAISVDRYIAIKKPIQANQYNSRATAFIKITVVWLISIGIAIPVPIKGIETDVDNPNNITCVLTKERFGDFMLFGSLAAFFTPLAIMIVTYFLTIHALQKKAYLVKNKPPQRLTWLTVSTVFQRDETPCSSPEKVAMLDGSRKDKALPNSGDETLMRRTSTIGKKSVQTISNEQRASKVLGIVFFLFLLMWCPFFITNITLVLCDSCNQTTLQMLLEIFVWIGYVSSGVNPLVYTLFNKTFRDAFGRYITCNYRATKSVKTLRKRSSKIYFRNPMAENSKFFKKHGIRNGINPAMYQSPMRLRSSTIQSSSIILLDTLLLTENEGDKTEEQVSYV
Chain of Kappa-type opioid receptor (Rattus norvegicus) (P34975 whole entry): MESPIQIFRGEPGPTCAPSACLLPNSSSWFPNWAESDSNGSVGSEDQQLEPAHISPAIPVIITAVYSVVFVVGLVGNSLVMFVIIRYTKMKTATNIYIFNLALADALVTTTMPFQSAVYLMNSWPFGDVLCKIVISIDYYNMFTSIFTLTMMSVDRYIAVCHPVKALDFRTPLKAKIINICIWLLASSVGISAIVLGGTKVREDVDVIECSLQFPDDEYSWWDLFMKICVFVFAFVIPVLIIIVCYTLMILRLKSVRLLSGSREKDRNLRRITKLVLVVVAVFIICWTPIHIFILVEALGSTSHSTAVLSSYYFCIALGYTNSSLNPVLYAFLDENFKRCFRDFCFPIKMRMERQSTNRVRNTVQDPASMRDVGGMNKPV
Chain of Mitogen-activated protein kinase 1 (Homo sapiens) (P28482 whole entry): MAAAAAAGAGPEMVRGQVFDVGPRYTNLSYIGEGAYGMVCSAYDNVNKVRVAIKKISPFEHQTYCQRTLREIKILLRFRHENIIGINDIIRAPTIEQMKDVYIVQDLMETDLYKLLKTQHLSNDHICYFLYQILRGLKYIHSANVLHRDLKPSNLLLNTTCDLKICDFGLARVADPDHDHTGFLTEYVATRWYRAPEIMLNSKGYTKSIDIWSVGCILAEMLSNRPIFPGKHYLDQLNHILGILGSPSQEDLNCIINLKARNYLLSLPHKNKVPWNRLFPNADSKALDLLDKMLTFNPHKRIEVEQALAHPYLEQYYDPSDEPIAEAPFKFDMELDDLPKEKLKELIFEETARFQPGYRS
Chain of AMP-activated protein kinase (AMPK) alpha-1/beta-1/gamma-1 (Homo sapiens) (P54619 whole entry): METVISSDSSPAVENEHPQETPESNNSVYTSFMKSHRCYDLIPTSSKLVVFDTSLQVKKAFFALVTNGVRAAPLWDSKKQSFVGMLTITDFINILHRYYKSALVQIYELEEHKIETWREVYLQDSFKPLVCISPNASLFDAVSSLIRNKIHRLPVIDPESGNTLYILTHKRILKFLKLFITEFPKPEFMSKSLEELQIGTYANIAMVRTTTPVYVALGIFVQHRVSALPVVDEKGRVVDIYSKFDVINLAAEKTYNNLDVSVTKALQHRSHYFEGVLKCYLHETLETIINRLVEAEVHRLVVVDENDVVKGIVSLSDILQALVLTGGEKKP
Chain of AMP-activated protein kinase (AMPK) alpha-1/beta-1/gamma-1 (Homo sapiens) (Q13131 whole entry partner): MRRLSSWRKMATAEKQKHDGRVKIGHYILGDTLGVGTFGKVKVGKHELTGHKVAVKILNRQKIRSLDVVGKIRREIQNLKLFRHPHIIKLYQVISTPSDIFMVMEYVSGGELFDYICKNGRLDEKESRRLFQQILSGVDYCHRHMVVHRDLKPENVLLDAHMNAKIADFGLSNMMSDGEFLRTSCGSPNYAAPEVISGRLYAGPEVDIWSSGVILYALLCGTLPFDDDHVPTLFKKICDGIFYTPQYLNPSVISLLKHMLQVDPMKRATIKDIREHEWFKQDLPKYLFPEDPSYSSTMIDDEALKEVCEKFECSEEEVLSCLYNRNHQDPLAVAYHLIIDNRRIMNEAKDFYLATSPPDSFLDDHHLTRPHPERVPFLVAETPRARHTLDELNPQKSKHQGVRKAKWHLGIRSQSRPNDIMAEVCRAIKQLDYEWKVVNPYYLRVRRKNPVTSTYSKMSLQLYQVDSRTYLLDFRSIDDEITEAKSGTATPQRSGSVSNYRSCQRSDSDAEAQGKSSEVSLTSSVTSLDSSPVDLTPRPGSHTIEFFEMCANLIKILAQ
Chain of AMP-activated protein kinase (AMPK) alpha-1/beta-1/gamma-1 (Homo sapiens) (Q9Y478 2-270 partner limits assumed): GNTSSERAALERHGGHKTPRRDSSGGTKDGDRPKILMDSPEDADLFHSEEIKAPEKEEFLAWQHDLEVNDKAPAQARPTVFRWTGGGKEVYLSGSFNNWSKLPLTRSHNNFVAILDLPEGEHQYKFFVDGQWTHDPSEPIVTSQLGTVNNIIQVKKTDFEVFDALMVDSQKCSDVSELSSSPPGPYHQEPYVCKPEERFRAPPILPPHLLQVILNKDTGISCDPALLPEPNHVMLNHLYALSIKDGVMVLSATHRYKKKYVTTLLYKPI

inhibition [1] [%]	inhibition [3] [%]	inhibition [4] [%]	residual activity [5] [%]	residual activity [6] [%]	residual activity [7] [%]	residual activity [8] [%]	residual activity [9] [%]	residual activity [10] [%]	residual activity [13] [%]	inhibition [14] [%]	inhibition [15] [%]	residual activity [16] [%]	residual activity [17] [%]	inhibition [18] [%]	inhibition [19] [%]	Kd [20]	SMILES	residual activity [2] [%]	activity at 10 µM [11]	residual activity [12] [%]
-0.36	11.6	9.75	110	102	111	102	118	101	97	13.9	-5.25	111	106	6.5	12.5		CNC(=O)COc1cc2cc(Nc3nc(N4C[C@H](C)C[C@H](C)C4)ncc3Cl)ccc2n(C)c1=O	89	105% (not active)	115
																1.41 µM (not active)	C[C@@H]1C[C@H](C)CN(c2ncc(Cl)c(Nc3ccc4c(c3)cc(OC(C)(C)C(=O)O)c(=O)n4C)n2)C1			
